Measured values published in ChEMBL document CHEMBL1151438, “In vitro resistance study of rupintrivir, a novel inhibitor of human rhinovirus 3C protease” (Antimicrob Agents Chemother, 2007).

How the values were obtained:
rhinovirus A2 [1] = test: Ratio of EC50 for HRV2 with 3C protease N165T mutation infected in human H1-HeLa cells after 6 passages for 37 days to EC50 for wild type HRV2 infected in human H1-HeLa cells; assay type: functional
rhinovirus B14 [2] = test: Ratio of EC50 for HRV14 infected in human H1-HeLa cells after 9 passages for 48 days to EC50 for wild type HRV14 infected in human H1-HeLa cells; assay type: functional
rhinovirus A2 [3] = test: Ratio of EC50 for HRV2 infected in human H1-HeLa cells after 8 passages for 52 days to EC50 for wild type HRV2 infected in human H1-HeLa cells; assay type: functional
rhinovirus B14 [4] = test: Ratio of EC50 for HRV14 infected in human H1-HeLa cells after 7 passages for 33 days to EC50 for wild type HRV14 infected in human H1-HeLa cells; assay type: functional
Human rhinovirus sp. [5] = test: Ratio of EC50 for HRV Hanks infected in human H1-HeLa cells after 6 passage for 40 days to EC50 for wild type HRV Hanks infected in human H1-HeLa cells; assay type: functional
rhinovirus B14 [6] = test: Ratio of EC50 for HRV14 with 3C protease with A121A/V, T129A, T131A, N132S, Y139Y/H, T143P mutation infected in human H1-HeLa cells after 12 passages for 72 days to EC50 for wild type HRV14 infected in human H1-HeLa cells; assay type: functional
rhinovirus A39 [7] = test: Antiviral activity against HRV39 with 3C protease […], L136/F mutation infected in human H1-HeLa cells assessed as virus-induced cytopathic effect after 5 passages for 29 days by XTT assay; assay type: functional, organism-based; conditions: Rhinovirus A, 696 h
rhinovirus A2 [8] = test: Ratio of EC50 for HRV2 infected in human H1-HeLa cells after 1 passage for 6 days to EC50 for wild type HRV2 infected in human H1-HeLa cells; assay type: functional
rhinovirus A2 [9] = test: Ratio of EC50 for HRV2 infected in human H1-HeLa cells after 3 passages for 17 days to EC50 for wild type HRV2 infected in human H1-HeLa cells; assay type: functional
rhinovirus A39 [10] = test: Ratio of EC50 for HRV39 infected in human H1-HeLa cells after 9 passages for 50 days to EC50 for wild type HRV39 infected in human H1-HeLa cells; assay type: functional
rhinovirus A2 [11] = test: Ratio of EC50 for HRV2 with 3C protease N165T mutation infected in human H1-HeLa cells after 3 passages for 24 days to EC50 for wild type HRV2 infected in human H1-HeLa cells; assay type: functional
rhinovirus B14 [12] = test: Ratio of EC50 for HRV14 infected in human H1-HeLa cells after 8 passages for 40 days to EC50 for wild type HRV14 infected in human H1-HeLa cells; assay type: functional
rhinovirus B14 [13] = test: Ratio of EC50 for HRV14 infected in human H1-HeLa cells after 4 passages for 17 days to EC50 for wild type HRV14 infected in human H1-HeLa cells; assay type: functional
rhinovirus A2 [14] = test: Antiviral activity against HRV2 with 3C protease N165T mutation infected in human H1-HeLa cells assessed as virus-induced cytopathic effect after 6 passages for 37 days by XTT assay; assay type: functional, organism-based; conditions: Rhinovirus A
rhinovirus A2 [15] = test: Antiviral activity against HRV2 infected in human H1-HeLa cells assessed as virus-induced cytopathic effect after 3 passages for 17 days by XTT assay; assay type: functional, organism-based; conditions: Rhinovirus A, 408 h
rhinovirus A2 [16] = test: Antiviral activity against HRV2 with 3C protease N165T mutation infected in human H1-HeLa cells assessed as virus-induced cytopathic effect after 5 passages for 30 days by XTT assay; assay type: functional, organism-based; conditions: Rhinovirus A
rhinovirus B14 [17] = test: Antiviral activity against HRV14 with 3C protease T129A, T131A, T143P, Y139Y/H mutation infected in human H1-HeLa cells assessed as virus-induced cytopathic effect after 10 passages for 55 days by XTT assay; assay type: functional, organism-based; conditions: Rhinovirus B
rhinovirus B14 [18] = test: Ratio of EC50 for HRV14 infected in human H1-HeLa cells after 5 passages for 22 days to EC50 for wild type HRV14 infected in human H1-HeLa cells; assay type: functional
rhinovirus A2 [19] = test: Antiviral activity against HRV2 with 3C protease N165T mutation infected in human H1-HeLa cells assessed as virus-induced cytopathic effect after 4 passages for 24 days by XTT assay; assay type: functional, organism-based; conditions: Rhinovirus A, 576 h
rhinovirus B14 [20] = test: Ratio of EC50 for HRV14 with 3C protease with T129A, T131T/A, T143P mutation infected in human H1-HeLa cells after 5 passages for 22 days to EC50 for wild type HRV14 infected in human H1-HeLa cells; assay type: functional
rhinovirus A2 [21] = test: Ratio of EC50 for HRV2 with 3C protease N165T mutation infected in human H1-HeLa cells after 4 passages for 24 days to EC50 for wild type HRV2 infected in human H1-HeLa cells; assay type: functional
rhinovirus B14 [22] = test: Antiviral activity against HRV14 with 3C protease T143P mutation infected in human H1-HeLa cells assessed as virus-induced cytopathic effect after 3 days by XTT assay; assay type: functional, organism-based; conditions: Rhinovirus B, 72 h
rhinovirus B14 [23] = test: Ratio of EC50 for HRV14 with 3C protease T129A, T131T/A, T143P mutation infected in human H1-HeLa cells after 4 passages for 17 days to EC50 for wild type HRV14 infected in human H1-HeLa cells; assay type: functional
rhinovirus B14 [24] = test: Antiviral activity against 0.02 MOI HRV14 infected in human H1-HeLa cells assessed as cell killing after 5 passages for 22 days by XTT assay; assay type: functional
rhinovirus A39 [25] = test: Ratio of EC50 for HRV39 with 3C protease […], L136/F mutation infected in human H1-HeLa cells after 5 passages for 29 days to EC50 for wild type HRV39 infected in human H1-HeLa cells; assay type: functional
rhinovirus B14 [26] = test: Ratio of EC50 for HRV14 infected in human H1-HeLa cells after 2 passages for 11 days to EC50 for wild type HRV14 infected in human H1-HeLa cells; assay type: functional
rhinovirus A2 [27] = test: Ratio of EC50 for HRV2 infected in human H1-HeLa cells after 6 passages for 37 days to EC50 for wild type HRV2 infected in human H1-HeLa cells; assay type: functional
Human rhinovirus sp. [28] = test: Ratio of EC50 for HRV Hanks infected in human H1-HeLa cells after 3 passage for 35 days to EC50 for wild type HRV Hanks infected in human H1-HeLa cells; assay type: functional
Human rhinovirus sp. [29] = test: Ratio of EC50 for HRV Hanks infected in human H1-HeLa cells after 1 passage for 7 days to EC50 for wild type HRV Hanks infected in human H1-HeLa cells; assay type: functional
rhinovirus A39 [30] = test: Ratio of EC50 for HRV39 with 3C protease S105S/T, N130K, L136F mutation infected in human H1-HeLa cells after 9 passages for 50 days to EC50 for wild type HRV39 infected in human H1-HeLa cells; assay type: functional
rhinovirus B14 [31] = test: Ratio of EC50 for HRV14 with 3C protease T129A, T131A, Y139H, T143P mutation infected in human H1-HeLa cells to EC50 for wild type HRV14 infected in human H1-HeLa cells; assay type: functional
rhinovirus A39 [32] = test: Ratio of EC50 for HRV39 infected in human H1-HeLa cells after 1 passage for 7 days to EC50 for wild type HRV39 infected in human H1-HeLa cells; assay type: functional

## CCOC(=O)/C=C/[C@H](C[C@@H]1CCNC1=O)NC(=O)[C@@H](CC(=O)[C@@H](NC(=O)c1cc(C)on1)C(C)C)Cc1ccc(F)cc1 [RUPINTRIVIR]
Rhinovirus A2 [1]
  Ratio EC50: 2
Rhinovirus B14 [2]
  Ratio EC50: 60
Rhinovirus A2 [3]
  Ratio EC50: 15
Rhinovirus B14 [4]
  Ratio EC50: 30
Human rhinovirus sp. [5]
  Ratio EC50: 3
Rhinovirus B14 [6]
  Ratio EC50: 20
Rhinovirus A39 [7]
  EC50: 83 nM
Rhinovirus A2 [8]
  Ratio EC50: 1
Rhinovirus A2 [9]
  Ratio EC50: 3
Rhinovirus A39 [10]
  Ratio EC50: 6
Rhinovirus A2 [11]
  Ratio EC50: 1
Rhinovirus B14 [12]
  Ratio EC50: 40
Rhinovirus B14 [13]
  Ratio EC50: 10
Rhinovirus A2 [14]
  EC50: 67 nM
Rhinovirus A2 [15]
  EC50: 34 nM
Rhinovirus A2 [16]
  EC50: 57 nM
Rhinovirus B14 [17]
  EC50: 324 nM
Rhinovirus B14 [18]
  Ratio EC50: 20
Rhinovirus A2 [19]
  EC50: 44 nM
Rhinovirus B14 [20]
  Ratio EC50: 5
Rhinovirus A2 [21]
  Ratio EC50: 2
Rhinovirus B14 [22]
  EC50: 15 nM
Rhinovirus B14 [23]
  Ratio EC50: 11
Rhinovirus B14 [24]
  Activity: 88.2%
Rhinovirus A39 [25]
  Ratio EC50: 3
Rhinovirus B14 [26]
  Ratio EC50: 3.5
Rhinovirus A2 [27]
  Ratio EC50: 5
Human rhinovirus sp. [28]
  Ratio EC50: 2
Human rhinovirus sp. [29]
  Ratio EC50: 1
Rhinovirus A39 [30]
  Ratio EC50: 4
Rhinovirus B14 [31]
  Ratio EC50: 7
Rhinovirus A39 [32]
  Ratio EC50: 3
